# Source: patent US20260224720A1, “ECTEINASCIDIN DERIVATIVE ANTIBODY DRUG CONJUGATES” (priority 2023, published 2026)
# How the values were obtained:
# [1] = male mice, previously reported; cited from earlier work
# HCC1954 (Her2 positive) = assay: Adherent cells cytotoxicity assay (CellTiter-Glo), HCC1954; format: cell-based; details: Homo sapiens, 3 to 5 days
# Experimental: (§1) Adherent cells were cultured in a T75 flask to ~50-80% confluency and harvested with trypsin into a single cell suspension. Three to five thousand (3,000-5,000) cells per well were seeded in tissue culture plates in 50 μL/well culture media and incubated at 37° C. for 18-24 hours. Serial dilutions of ADCs in culture media were then dispensed into the plates at 50 μL/well. After plating and treatment, cells were returned to the incubator for an additional 3 to 5 days. CellTiter-Glo reagent was prepared per manufacturer's instructions and added at 100 μL/well to the cultures. CellTiter-Glo allows for relative enumeration of metabolically active cells by quantifying intracellular ATP concentrations. […] Luminescence signals were detected using a standard plate reader and IC50s were calculated by logistic nonlinear regression using GraphPad Prism (GraphPad Software, San Diego, CA).
# SUDHL1 (CD30 positive) = assay: Suspension cells cytotoxicity assay (CellTiter-Glo), SUDHL1; format: cell-based; details: Homo sapiens, SU-DHL-1, 3-5 days
# Experimental: Three to five thousand (3,000-5,000) cells per well were seeded in tissue culture plates in 50 μL/well culture media and incubated at 37° C. for 18-24 hours.
# Serial dilutions of ADCs in culture media were then dispensed into the plates at 50 μL/well. […] CellTiter-Glo reagent was prepared per manufacturer's instructions and added at 100 μL/well to the cultures. CellTiter-Glo allows for relative enumeration of metabolically active cells by quantifying intracellular ATP concentrations. […] Luminescence signals were detected using a standard plate reader and IC50s were calculated by logistic nonlinear regression using GraphPad Prism (GraphPad Software, San Diego, CA).
# [2] = system: Confluent HCC1954 (Her2 positive); assay: Adherent cells cytotoxicity assay (CellTiter-Glo), confluent HCC1954; format: cell-based; details: Homo sapiens
# SKBR3 (Her2 positive) = assay: Adherent cells cytotoxicity assay (CellTiter-Glo), SKBR3; format: cell-based; details: Homo sapiens, SK-BR-3, 3 to 5 days
# Experimental: as §1
compound,measurement,setting,value
COc1cc2c(cc1O)CCN[C@]21CS[C@@H]2c3c(OC(C)=O)c(C)c4c(c3[C@H](COC1=O)N1[C@@H]2[C@H]2c3c(cc(C)c(OC)c3O)C[C@@H]([C@@H]1O)N2C)OCO4 [trabectedin],maximum tolerated dose (MTD),[1],0.15 mg/kg
COc1ccc2[nH]c3c(c2c1)CCN(C(N1CCCC1)N1CCCC1)[C@]31CS[C@@H]2c3c(OC(C)=O)c(C)c4c(c3[C@H](COC1=O)N1C2[C@H]2c3c(cc(C)c(OC)c3O)C[C@@H](C1O)N2C)OCO4 (some centres unmarked) [Lurbinectedin Derivative 1],IC50,HCC1954 (Her2 positive),2.58 nM
same,IC50,SUDHL1 (CD30 positive),0.625 nM
same,IC50,[2],3.7 nM
same,IC50,SKBR3 (Her2 positive),0.542 nM
